Test results published in patent US8933233B2, “1,3,4-oxadiazole and 1,3,4-thiadiazole β-lactamase inhibitors” (priority 2012, dated 2015).
Where a name gives a salt, the structure may show the parent alone.

Tests used:
[1] = tested on: bacterial strains that express the class D cephalosporinase OXA-15; test: Synergy MIC / standard BLI potentiation MIC assay, strains expressing OXA-15; format: cell-based, E. coli; conditions: in presence of a β-lactam; comparator Avibactam (CCC)
Summary of the method: (§1)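 Broth microdilution in CAMHB per CLSI M07-A9, ~10^5 CFU/mL inoculum, 18–20 h at 37 °C with aeration; engineered E. coli kept with 25 μg/mL tetracycline. β-lactam 2-fold from 128 to 0.13 μg/mL with BLI fixed at 4 μg/mL, or BLI serially diluted with β-lactam fixed; MIC is lowest concentration without visible turbidity.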

[2] = tested on: bacterial strains that express KPC β-lactamases; test: Synergy MIC / standard BLI potentiation MIC assay, strains expressing KPC β-lactamases; format: cell-based, isogenic E. coli and clinical isolates; conditions: more active for at least one KPC strain and/or better spectrum; comparator Avibactam
Summary of the method: as §1

Row | SMILES | activity against bacterial strains that express OXA-15, compared with Avibactam [1] | activity and/or spectrum of activity against bacterial strains that express KPC β-lactamases, compared with Avibactam [2]
1 | CNCCCc1nnc([C@@H]2CC[C@@H]3CN2C(=O)N3OS(=O)(=O)O)o1 [Compound 734, 2S,5R)-2-(5-(3-(methylamino)propyl)-1,3,4-oxadiazol-2-yl)-7-oxo-1,6-diazabicyclo[3.2.1]octan-6-yl hydrogen sulfate] | more active than Avibactam | more active than Avibactam
2 | O=C1N2C[C@@H](CC[C@H]2c2nnc([C@H]3[C@@H]4CNC[C@@H]43)o2)N1OS(=O)(=O)O [Compound 740, (2S,5R)-2-(5-(3-azabicyclo[3.1.0]hexan-6-yl)-1,3,4-oxadiazol-2-yl)-7-oxo-1,6-diazabicyclo[3.2.1]octan-6-yl hydrogen sulfate] | more active than Avibactam | more active than Avibactam
3 | O=C1N2C[C@@H](CC[C@H]2c2nnc([C@@H]3CCNC3)o2)N1OS(=O)(=O)O [Compound 759, (2S,5R)-7-oxo-2-(5-((R)-pyrrolidin-3-yl)-1,3,4-oxadiazol-2-yl)-1,6-diazabicyclo[3.2.1]octan-6-yl hydrogen sulfate] | more active than Avibactam | more active than Avibactam
4 | N=C(N)NCc1nnc([C@@H]2CC[C@@H]3CN2C(=O)N3OS(=O)(=O)O)s1 [Compound 721, (2S,5R)-2-(5-(guanidinomethyl)-1,3,4-thiadiazol-2-yl)-7-oxo-1,6-diazabicyclo[3.2.1]octan-6-yl hydrogen sulfate] | more active than Avibactam | more active than Avibactam
5 | O=C1N2C[C@@H](CC[C@H]2c2nnc(C3CCNCC3)o2)N1OS(=O)(=O)O [Compound 711, (2S,5R)-7-oxo-2-(5-(piperidin-4-yl)-1,3,4-oxadiazol-2-yl)-1,6-diazabicyclo[3.2.1]octan-6-yl hydrogen sulfate] | more active than Avibactam | more active than Avibactam
6 | N[C@H]1C[C@H](Cc2nnc([C@@H]3CC[C@@H]4CN3C(=O)N4OS(=O)(=O)O)o2)C1 [Compound 751, (2S,5R)-2-(5-(((1r,3S)-3-aminocyclobutyl)methyl)-1,3,4-oxadiazol-2-yl)-7-oxo-1,6-diazabicyclo[3.2.1]octan-6-yl hydrogen sulfate] | more active than Avibactam | more active than Avibactam
7 | N=C1NCC(c2nnc([C@@H]3CC[C@@H]4CN3C(=O)N4OS(=O)(=O)O)o2)N1 (stereo partly drawn) [Compound 767, (2S,5R)-2-(5-(2-iminoimidazolidin-4-yl)-1,3,4-oxadiazol-2-yl)-7-oxo-1,6-diazabicyclo[3.2.1]octan-6-yl hydrogen sulfate] | more active than Avibactam | more active than Avibactam
8 | O=C1N2C[C@@H](CC[C@H]2c2nnc(CCCNC3CCNCC3)o2)N1OS(=O)(=O)O [Compound 771, (2S,5R)-7-oxo-2-(5-(3-(piperidin-4-ylamino)propyl)-1,3,4-oxadiazol-2-yl)-1,6-diazabicyclo[3.2.1]octan-6-yl hydrogen sulfate] | more active than Avibactam | more active than Avibactam
9 | NCCc1nnc([C@@H]2CC[C@@H]3CN2C(=O)N3OS(=O)(=O)O)o1 [Compound 703, (2S,5R)-2-(5-(2-aminoethyl)-1,3,4-oxadiazol-2-yl)-7-oxo-1,6-diazabicyclo[3.2.1]octan-6-yl hydrogen sulfate] | more active than Avibactam | more active than Avibactam
10 | CC(C)(N)Cc1nnc([C@@H]2CC[C@@H]3CN2C(=O)N3OS(=O)(=O)O)o1 [Compound 737, (2S,5R)-2-(5-(2-amino-2-methylpropyl)-1,3,4-oxadiazol-2-yl)-7-oxo-1,6-diazabicyclo[3.2.1]octan-6-yl hydrogen sulfate] | more active than Avibactam | more active than Avibactam
11 | NCCCCc1nnc([C@@H]2CC[C@@H]3CN2C(=O)N3OS(=O)(=O)O)o1 [Compound 735, (2S,5R)-2-(5-(4-aminobutyl)-1,3,4-oxadiazol-2-yl)-7-oxo-1,6-diazabicyclo[3.2.1]octan-6-yl hydrogen sulfate] | more active than Avibactam | more active than Avibactam
12 | O=C1N2C[C@@H](CC[C@H]2c2nnc(C3CC4(CNC4)C3)o2)N1OS(=O)(=O)O [Compound 750, (2S,5R)-2-(5-(2-azaspiro[3.3]heptan-6-yl)-1,3,4-oxadiazol-2-yl)-7-oxo-1,6-diazabicyclo[3.2.1]octan-6-yl hydrogen sulfate] | more active than Avibactam | more active than Avibactam
13 | N=C(N)NC1(Cc2nnc([C@@H]3CC[C@@H]4CN3C(=O)N4OS(=O)(=O)O)o2)CC1 [Compound 739, (2S,5R)-2-(5-((1-guanidinocyclopropyl)methyl)-1,3,4-oxadiazol-2-yl)-7-oxo-1,6-diazabicyclo[3.2.1]octan-6-yl hydrogen sulfate] | more active than Avibactam | more active than Avibactam
14 | N=C(N)NCCc1nnc([C@@H]2CC[C@@H]3CN2C(=O)N3OS(=O)(=O)O)s1 [Compound 794, (2S,5R)-2-(5-(2-guanidinoethyl)-1,3,4-thiadiazol-2-yl)-7-oxo-1,6-diazabicyclo[3.2.1]octan-6-yl hydrogen sulfate] | more active than Avibactam | more active than Avibactam
15 | N=C(N)N[C@H]1C[C@@H](c2nnc([C@@H]3CC[C@@H]4CN3C(=O)N4OS(=O)(=O)O)o2)C1 [Compound 749, 2S,5R)-2-(5-((1s,3R)-3-guanidinocyclobutyl)-1,3,4-oxadiazol-2-yl)-7-oxo-1,6-diazabicyclo[3.2.1]octan-6-yl hydrogen sulfate] | more active than Avibactam | more active than Avibactam
16 | O=C1N2C[C@@H](CC[C@H]2c2nnc(CCCCNC3CCNCC3)o2)N1OS(=O)(=O)O [Compound 772, (2S,5R)-7-oxo-2-(5-(4-(piperidin-4-ylamino)butyl)-1,3,4-oxadiazol-2-yl)-1,6-diazabicyclo[3.2.1]octan-6-yl hydrogen sulfate] | more active than Avibactam | more active than Avibactam
17 | O=C1N2C[C@@H](CC[C@H]2c2nnc(CNC3CNC3)o2)N1OS(=O)(=O)O [Compound 726, (2S,5R)-2-(5-((azetidin-3-ylamino)methyl)-1,3,4-oxadiazol-2-yl)-7-oxo-1,6-diazabicyclo[3.2.1]octan-6-yl hydrogen sulfate] | more active than Avibactam | more active than Avibactam
18 | O=C1N2C[C@@H](CC[C@H]2c2nnc(CCCC3CNC3)o2)N1OS(=O)(=O)O [Compound 743, (2S,5R)-2-(5-(3-(azetidin-3-yl)propyl)-1,3,4-oxadiazol-2-yl)-7-oxo-1,6-diazabicyclo[3.2.1]octan-6-yl hydrogen sulfate] | more active than Avibactam | more active than Avibactam
19 | N=C(N)NC[C@H](O)c1nnc([C@@H]2CC[C@@H]3CN2C(=O)N3OS(=O)(=O)O)o1 [Compound 732, (2S,5R)-2-(5-((S)-2-guanidino-1-hydroxyethyl)-1,3,4-oxadiazol-2-yl)-7-oxo-1,6-diazabicyclo[3.2.1]octan-6-yl hydrogen sulfate] | more active than Avibactam | more active than Avibactam
20 | N=C(N)N1CC(Cc2nnc([C@@H]3CC[C@@H]4CN3C(=O)N4OS(=O)(=O)O)o2)C1 [Compound 741, (2S,5R)-2-(5-((1-carbamimidoylazetidin-3-yl)methyl)-1,3,4-oxadiazol-2-yl)-7-oxo-1,6-diazabicyclo[3.2.1]octan-6-yl hydrogen sulfate] | more active than Avibactam | more active than Avibactam
